The results in this text go back to patent US20230399374A1, “Compounds, Compositions and Methods of Use to Treat Bone Fractures” (PURDUE RESEARCH FOUNDATION, priority 2020, published 2023).

Non-standard residues stand in square brackets, D forms with d. Residues, ends and D or L forms follow the SMILES beside them. No end group written: not given here. *: point of attachment. X2 = CC1(C)C(/C=C/C2=C(Oc3ccc(CCNC(=O)CCN4C(=O)CC(*)C4=O)cc3)C(=C/C=C3/N(CCCCS(=O)(=O)O)c4ccc(S(=O)(=O)O)cc4C3(C)C)/CCC2)=[N+](CCCCS(=O)(=O)O)c2ccc(S(=O)(=O)O)cc21; Fmoc = O=C(OCC1c2ccccc2-c2ccccc21)*

Data set [1] can be described thus: Half-life of S0456 near-IR dye conjugates at the fracture site. Particulars: female, ND-4 Swiss-Webster, mouse, in vivo, sc, 250 nmol/mouse. As to the method: (§1) All animal experiments were performed in accordance with protocols approved by Purdue University's Institutional Animal Care and Use Committee (IACUC).
The conditions of data set [2]: mouse, in vivo, iv. On the procedure:
as §1

The subject of data set [3] is fracture site (fractured femur). The arrangement: species or system mice. Particulars: mouse, in vivo; for cumulative residence time (AUC) at the fracture site / half-life at the fracture site: sc. The text has this: (§2) SEQ ID NO: 4 was subcutaneously injected into fracture-bearing mice. […] The results are shown in FIG. 30, which is a graph of hours vs. percent injected dose in blood (cpm/g) of mice with midshaft femoral factures. […] The results are shown in FIG. 31, which is a graph of hours vs. percent injected dose in bone (cpm/g) of mice with midshaft femoral factures.

On the set-up of data set [4]: species or system mice. Particulars: mouse, in vivo, sc.
Source text: as §2

In the next data set the test system is midshaft femur fracture. The data set can be described thus: Pain/function outcomes, locomotor open-field testing after midshaft femur fracture. Type of data set: in vivo, mice. As to the method: Pain/function outcomes in mice were accessed by turning to behavioral testing. Allodynia was evaluated using Von Frey probes, whereas gain was evaluated using DigiGait, functionality was evaluated using running wheels, and anxiety coupled with functionality was evaluated using locomotor open-field testing. Open-field locomotor testing afforded the most consistent measurements.
Mice were habituated to the behavior room for 30-60 minutes before testing locomotor activity. Animals were habituated once for 10 minutes to the locomotor boxes prior to the start of the experiment. They were then placed individually in a locomotor box with infrared light tracking beams for 10 minutes before being removed and placed back in their home cage. The mice were tracked via EthoVision using 3-point directionality testing. Mice were measured for two weeks prior to the experiment. They then underwent the midshaft femur fracture model and were assigned to one of three treatment groups: 1) abaloparatide DE20 twice a week; 2) phosphate buffered saline twice a week; or 3) ibuprofen (0.6 g/L) in their water. The mice were treated for 5 weeks post-fracture and measured once a week.
For FIGS. 26-28, day 0 represents the baseline data pre-fracture. Saline and SEQ ID NO: 4 (1 nmol) were injected twice/week. Ibuprofen was administered constantly in the mice's water at a concentration of 0.6 g/L.

Data set [5] relates to midshaft femoral fractures. As to the kind of experiment: Midshaft femur fracture healing in otherwise healthy mice (micro-CT, bend to failure). Type of data set: in vivo. Particulars: for bone deposition in CT images: three weeks after initiation of treatment, FIG. 35. The text has this:
In some instances, elevated accumulation of SEQ ID NO: 4 at the fracture site improves fracture healing (e.g., FIGS. 26-30). In some instances, femur fracture healing times following administration of a starting dose calculated by allometric scaling of the human dose prescribed for abaloparatide (SEQ ID NO: 2) treatment of osteoporosis are compared.
Bone morphometric analyses confirmed a 1.5-fold increase in the ratio of mineralized volume (bone volume; BV) to total bone volume (total volume; TV) in the SEQ ID NO: 4-treated mice.
In some instances, such as, to establish whether the observed increase in bone deposition translates into an improvement in mechanical properties, the force required to bend the healed femurs until they fractured again was measured.
In some instances, the force to fracture in the SEQ ID NO: 4-treated mice exceeded that required to fracture the contralateral healthy femurs in the same mice or similar, unmodified femurs in saline-treated mice.
The length of the targeting oligopeptide was increased to determine if it increased the drug's affinity for broken bone sufficiently that retention of the anabolic payload at the fracture site would be prolonged and less frequent dosing may be required. Mice were doses once every three days, rather than daily. […] The results are shown in FIG. 34, which is a graph of treatment (saline, SEQ ID NO: 3 (0.1 nmol/mg (0.1×), 1 nmol/mg (1×), and 10 nmol/mg (10×), and SEQ ID NO: 4 (0.1 nmol/mg (0.1×), 1 nmol/mg (1×), and 10 nmol/mg (10×)) vs. max load (N) of mice with midshaft femoral factures.

The next data set has as its system midshaft femur fractures. Particulars: mouse, in vivo.
In data set [6] the test system is type I diabetic femur fracture. As to the kind of experiment: Fracture repair model, type I diabetes, compounds dosed in conjunction with insulin. Type of data set: in vivo, mice. Particulars: with insulin 2 IU/day; for strength (maximum force, work to fracture, modulus): significance relative to insulin-treated group, FIG. 22A-C. On the procedure:
(§3) Targeted conjugates of SEQ ID NO: 5, abaloparatide (SEQ ID NO: 2), SEQ ID NO: 6, and SEQ ID NO: 9 (a conjugate with 10 aspartic acid residues) were synthesized using Fmoc solid-phase peptide synthesis. From SEQ ID NO: 5, amino acids 1-34 were used, and abaloparatide (SEQ ID NO: 2) is a stabilized version of amino acids 1-36 of SEQ ID NO: 1. Diabetes was induced in 40 8-week-old male CD-1 mice via seven subcutaneous injections of streptozotocin (STZ) until blood sugar readings were above 250 mg/dL. The mice were left in this confirmed diabetic state for 2 months to allow the diabetes to take effect on the bones. Then, aseptic surgical techniques were used to place a 23-gauge needle as an intramedullary nail in the femur of the anesthetized mice for internal fixation before fracture was induced with a drop-weight fracture device from RISystem and confirmed by x-ray. The mice received buprenorphine for three days post-fracture. They were dosed subcutaneously with a positive control of insulin, a negative control of vehicle, SEQ ID NO: 5, or abaloparatide (SEQ ID NO: 2) each day for 4 weeks. Fracture healing was assessed qualitatively using micro-CT (Scanco Medical Ag). Fractured femurs were tested for strength in a 4-point-bend-to-failure using an ElectroForce TestBench (TA Instruments, New Castle, DE). Maximum load, stiffness, displacement post-yield, and work-to-fracture data were generated. Statistical analysis was performed using a one-way analysis of variance (ANOVA) with significance reported with p values less than 0.05 (*) and 0.01 (**).
However, since […] patients will not stop taking their insulin to take a compound provided herein, the experiment was repeated with compounds dosed in conjunction with insulin (FIGS. 20-22). […]
For FIGS. 22A-22C, insulin was dosed at 2 IU/day in all groups, except for saline. […] All significance levels were calculated relative to the insulin-treated group, not the saline control group. […]

Data set [7] relates to type I diabetic femur fracture. Type of data set: in vivo. Particulars: four weeks of treatment, micro-CT, FIG. 13 and 14. As to the method:
as §3
Four compounds were tested. […] Abaloparatide (SEQ ID NO: 2) is a stabilized version of parathyroid-related protein hormone. Dasatinib is an […] with off-target effects on both osteoblasts and osteoclasts that improve overall bone density. Dasatinib has also proven to be a senolytic. ITGA is a fibronectin mimetic that promotes intramembranous bone fracture healing. […] Therefore, it was hypothesized that the glucose regulating properties of full-length SEQ ID NO: 5 may be beneficial in healing type I diabetic fractures as a dual-action compound that may improve healing via two mechanisms. The compounds were compared against insulin as a positive control and saline as a negative control.
BV represents the bone volume of the 100 thickest micro-CT slices of the fracture callus and is a measure of how much bone has mineralized at the site of fracture repair. BV/TV represents the BV divided by TV of the 100 thickest micro-CT slides of the fracture callus and is a measure of how dense the bone is at the site of fracture repair. Insulin was dosed as 2 IU/day. Doses of 0.1×, 50×, and 10×, are […], and 10 nmol, respectively, of the conjugate delivered daily by subcutaneous injection. SEQ ID NO: 6 was dosed at 10 μmol/kg every other day.
Insulin was dosed at 2 IU/day. Doses of 0.1×, 50×, and 10×, are 0.1 nmol, 50 nmol, and […], of the conjugate delivered daily by subcutaneous injection. SEQ ID NO: 6 was dosed at 10 μmol/kg every other day.

Procedure for midshaft femur fractures: To explore the impact of peptide branching on payload targeting, the abilities of acidic oligo-aspartic acids constructed of either two chains of 5 aspartic acids each or a single linear chain of 10 aspartic acids to deliver the CK2.3 payload to fracture surfaces were compared. […] The biodistributions were determined 18 hours post-injection into ND-4 Swiss-Webster mice (n=5) bearing midshaft femur fractures 10 days post-fracture.
The biodistributions were determined 18 hours post-injection into ND-4 Swiss-Webster mice (n=5) bearing midshaft femur fractures 10 days post-fracture.
The biodistributions were determined 18 hours post-injection (e.g., into ND-4 Swiss-Webster mice (n=5) bearing midshaft femur fractures 10 days post-fracture).
In some instances, the biodistribution is determined 18 hours post-injection (e.g., into ND-4 Swiss-Webster mice (n=5) bearing midshaft femur fractures 10 days post-fracture).
The biodistribution was determined 18 hours post-injection (e.g., into ND-4 Swiss-Webster mice (n=5) bearing midshaft femur fractures 10 days post-fracture). In some instances, the accumulation of the labeled compounds in the fractured femurs are reported as a percent of the injected dose per gram of tissue. […]

Compound `CC1(C)C(/C=C/C2=C(Oc3ccc(CCNC(=O)CCN4C(=O)CC(SC[C@H](NC(=O)OCC5c6ccccc6-c6ccccc65)C(=O)N[C@H](CC(=O)O)C(=O)N[C@H](CC(=O)O)C(=O)N[C@H](CC(=O)O)C(=O)N[C@H](CC(=O)O)C(=O)N[C@H](CC(=O)O)C(=O)N[C@H](CC(=O)O)C(=O)N[C@H](CC(=O)O)C(=O)N[C@H](CC(=O)O)C(=O)N[C@H](CC(=O)O)C(=O)N[C@H](CC(=O)O)C(=O)O)C4=O)cc3)C(=C/C=C3/N(CCCCS(=O)(=O)O)c4ccc(S(=O)(=O)O)cc4C3(C)C)/CCC2)=[N+](CCCCS(=O)(=O)O)c2ccc(S(=O)(=O)O)cc21` (some centres unmarked) [(D)Asp10] (Fmoc-C(X2)[dD][dD][dD][dD][dD][dD][dD][dD][dD][dD]-OH) came in with a half-life in data set [1] above 4.17 days.
On to `N[C@@H](Cc1ccc(O)c(I)c1)C(=O)N[C@@H](CSC1CC(=O)N(CCC(=O)N[C@@H](CC(=O)O)C(=O)N[C@@H](CC(=O)O)C(=O)N[C@@H](CC(=O)O)C(=O)N[C@@H](CC(=O)O)C(=O)N[C@@H](CC(=O)O)C(=O)N[C@@H](CC(=O)O)C(=O)N[C@@H](CC(=O)O)C(=O)N[C@@H](CC(=O)O)C(=O)O)C1=O)C(=O)O` (some centres unmarked) [octa-aspartic acid] (HELM PEPTIDE1{[N[C@@H](Cc1ccc(O)c(I)c1)C(=O)N[C@@H](CSC1CC(=O)N(CCC(=O)[*:2])C1=O)C(=O)O].D.D.D.D.D.D.D.D}$$$$V2.0), for which the selectivity ratio in [2] was found to be 11.2.
Turning to “AVSEHQLLHDKGKSIQDLRRRELLEKLLxKLHTAEIRATSEVSPNSeeeeeeeeeeeeeeeeeeee [SEQ ID NO: 4]”, in [3], the “cumulative residence time (AUC) at the fracture site relative to abaloparatide” value is recorded as 11 fold; the “residence time in the contralateral femur, fold lower than in the fractured femur” value was determined as 8 fold; the “cumulative residence time (AUC) at the fracture site” value stood at 96 h; the “half-life at the fracture site” value was found to be 67 h. Also, in [4], the circulation half-life is 3.7 h and the “cumulative systemic exposure (AUC)” value came out at 20 h. The “distance traveled in 10 minutes” value in the data set on midshaft femur fracture (1 nmol twice/week, FIG. 26) is reported as “began to run farther”. Also, the “time spent moving in 10 minutes” value with midshaft femur fracture (1 nmol twice/week, FIG. 27) was “began to run for longer periods of time”. For the same compound, the “mean velocity in 10 minutes” value in the data set with midshaft femur fracture (1 nmol twice/week, FIG. 28) was “began to run faster”. Also, in the data set with midshaft femur fracture (5 weeks post-fracture, measured once a week), the “pain/function outcomes, well-being in the open field” value was “more functionality and better well-being”. Also, the “maximum load relative to free abaloparatide-treated femurs” value in data set [5] (FIG. 32) amounted to 2.5 fold. Besides, the “work to fracture relative to abaloparatide-treated femurs” value in data set [5] (FIG. 33) stood at 3.5 fold. In addition, the “max load compared to saline (significance)” value in [5] (dosed once every three days, FIG. 34) is recorded as “significantly higher”. The “maximum load before breakage, abalode 20 versus abalode 10, greater strength” value in [5] (dosed once every three days, trend, FIG. 34) is 20-30%. For the same compound, in [5] (mouse, in vivo), the “relative effectiveness at improving bone healing” value was “more effective (e.g., at improving bone healing) than SEQ ID NO: 3”; the “time at which bones return to their previous unbroken strength” value is “between two and three weeks post-fracture”. Moreover, the “bone deposition in CT images” value in data set [5] is reported as “distributed (e.g., more) evenly across the fractured area”. For the same compound, the “morphometric basis of the increase in bone density” value in data set [5] (three weeks of therapy) is on record as “primarily due to a reduction in trabecular spacing, rather than an increase in trabecular thickness”. Moreover, in data set [5] (three weeks of therapy, compared with abaloparatide-treated mice), the “increase in the ratio of bone volume to total volume (BV/TV)” value came to 1.5 fold. Also, the “strength of repaired femurs above original unbroken femurs” value in data set [5] (versus contralateral healthy femurs) was 30%.
For RQIKIWFQNRRMKWKKIPVGESLKDLIDQC [CK2.3], the “fracture targetability of payloads coupled to (L)Asp10 (in words)” value in the data set on midshaft femur fractures was “displayed no reduction in fracture accumulation”.
Turning to “SEQ ID NO: 8: cyclic peptide 102, a conjugate with 10 glutamic acid residues (HEEEEEEEEEERRETAWA; also: cyclic, ring not given here)”, in data set [6] (four weeks, FIG. 20A), the “mineralization of the callus (bone volume)” value was “improved the mineralization of the callus better than insulin”. In [6], the “strength (maximum force, work to fracture, modulus)” value is “significantly improved the strength compared to the insulin control”.
As to “abaloparatide [SEQ ID NO: 2, reference compound]”, in data set [3], the “cumulative residence time (AUC) at the fracture site” value stood at 8 h and the “half-life at the fracture site” value was determined as 8.8 h. Also, in data set [4], the circulation half-life came to 4.2 h and the “cumulative systemic exposure (AUC)” value was determined as 24.4 h. In data set [7], the “callus mineralization (BV) and bone density (BV/TV)” value is “impacting density the most”. Also, in [6], the “strength (maximum force, work to fracture, modulus)” value is recorded as “significantly improved the strength compared to the insulin control”. Moreover, the “bone deposition in CT images” value in data set [5] is on record as “concentrated on the periphery of the fracture, with minimal density bridging the opposing calluses”.
